Counter-ions that a name gives are not always drawn. Values belong to the molecule of their own block, whether it stands above or below them.
Tests used:
[1] = tested on: N- and C-terminal fragments of Gaussian luciferase conjugated to Aβ42; assay: Aβ split-luciferase complementation assay, oligomer formation in HEK293 cells; assay type: cell-based
Method: (§1) Aβ agglomeration and oligomer dissociation assays were performed in vitro using an Aβ splitluciferase complementation assay. […] The conditioned media from these cells was collected, 10 nM of coelenterazine was added and the luciferase activity was measured using a Wallac 1420 (PerkinElmer). […] The luciferase activity was measured.

Aβ42 = biological target: T1, Aβ42 (Homo sapiens, UniProt P05067); assay: Aβ42 fibril formation by transmission electron microscopy; assay type: biochemical
T1 construct: Aberrant Aβ peptide isoforms that are 40 or 42 amino acids in length (Aβ-40/42); host or cells: synthetic
T1 sequence (P05067 672-713 limits assumed): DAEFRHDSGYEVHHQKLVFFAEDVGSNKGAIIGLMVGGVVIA
Method: The anti-fibrillogenic properties of cromolyn was confirmed by performing TEM analysis. […] After incubation for 48 hours, 15 μl or the Aβ42 fibril solution were adsorbed on carbon-coated EM grids for 20 min. at room temperature. After 3 washes in sterile PBS and ddH2O, the grids were allowed to dry before negative staining with 2% (w/v) uranyl-acetate water, two times for 8 min. Each grid was then briefly washed in degassed ddH2O, air dried, and imaged by TEM at a magnification of 150,000×.

Aβ40 and Aβ42 = assay: Thioflavin T Aβ fibrillization assay; conditions: 5, 50, 5000 nM, one hour incubation at 37° C.
Method: In vitro amyloid fibrillization assay was performed using synthetic Aβ peptides (rPeptide, Bogart GA) as well as thioflavin-T (Sigma-Aldrich), respectively dissolved in DMSO and in methanol.
DMSO was used as control. The progression of fibrillization was followed every 10 min. for 60 min. at room temperature by measuring the fluorescence intensity at excitation and emission wavelengths of 450 nm and 480 nm, respectively, using an M3 microplate reader. The results were normalized for background using fluorescent reading at time 0 by the software provided by the M3 plate reader.

Aβx-40 = biological target: T2, Aβx-40 (Homo sapiens, UniProt P05067); assay: Brain extract sandwich ELISA in APP/PS1 mice, Aβx-40; assay type: in vivo, mouse; conditions: for content of TBS-soluble Aβx-40 / total level of TBS soluble Aβx-40 after 0.5 M Gdn-HCl: seven days; for content of TBS-soluble Aβx-40: APP/PS1 mice; for total level of TBS soluble Aβx-40 after 0.5 M Gdn-HCl: guanidine 37° C. 30 min
T2 construct: commercially available kits BNT77/BA27 for Aβ40 or BNT77/BC05 for Aβx-42; from tissue; host or cells: brain extracts (TBS, Triton, SDS) or hippocampal interstitial fluid of APPswe/PS1dE9 mice
T2 sequence (P05067 672-711 limits assumed): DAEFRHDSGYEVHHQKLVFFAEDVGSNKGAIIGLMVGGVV

[2] = cited from earlier work
Aβ peptides = assay: Binding to Aβ peptides
Aβx-42 = biological target: T3, Aβx-42 (Homo sapiens, UniProt P05067); assay: Brain extract sandwich ELISA in APP/PS1 mice, Aβx-42; assay type: in vivo, mouse; conditions: for content of TBS-soluble Aβx-42 / total level of TBS soluble Aβx-42 after 0.5 M Gdn-HCl: seven days; for content of TBS-soluble Aβx-42: APP/PS1 mice; for total level of TBS soluble Aβx-42 after 0.5 M Gdn-HCl: guanidine 37° C. 30 min
T3 construct: commercially available kits BNT77/BA27 for Aβ40 or BNT77/BC05 for Aβx-42; from tissue; host or cells: brain extracts (TBS, Triton, SDS) or hippocampal interstitial fluid of APPswe/PS1dE9 mice
T3 sequence (P05067 672-713 limits assumed): as the sequence (P05067 672-713 limits assumed) above

[3] = tested on: pre-existing Aβ42 oligomers (Gluc halves fused with Aβ42); assay: Oligomer dissociation assay, split-luciferase, conditioned media; assay type: biochemical; conditions: added to conditioned media, 10 nM, 10 μM or 1 mM, 12 hours
Method: as §1

[4] = tested on: ISF Aβx-42 and Aβ oligomers; assay: In vivo microdialysis of ISF in APP/PS1 mice, Aβx-42 and Aβ oligomers; parameters: species or system mouse; conditions: 3.15 mg/kg i.p. daily for one week; compared with ISF Aβx-40
amyloid deposits = assay: Immunohistochemical amyloid burden and density of amyloid deposits in APP/PS1 mice; assay type: in vivo, mouse; conditions: one week of treatment
Aβ oligomers = assay: 82E1/82E1 ELISA of Aβ oligomers in TBS soluble brain fraction of APP/PS1 mice; assay type: in vivo, mouse; conditions: one week i.p. treatment
ISF Aβx-40 = biological target: T4, ISF Aβx-40 (Homo sapiens, UniProt P05067); assay: In vivo microdialysis of ISF in APP/PS1 mice, Aβx-40; parameters: species or system mouse; conditions: 3.15 mg/kg i.p. daily for one week
T4 construct: commercially available kits BNT77/BA27 for Aβ40 or BNT77/BC05 for Aβx-42; from tissue; host or cells: brain extracts (TBS, Triton, SDS) or hippocampal interstitial fluid of APPswe/PS1dE9 mice
T4 sequence (P05067 672-711 limits assumed): as the sequence (P05067 672-711 limits assumed) above

APP/PS1 transgenic mice = assay: Morris water maze in APP/PS1 transgenic mice; assay type: in vivo, mouse; conditions: versus mock treatment
ISF Aβ = ISF Aβ half-life by reverse microdialysis with Compound E in APP/PS1 mice; assay type: in vivo, mouse; conditions: 3.15 mg/kg
Method: The contralateral hippocampus was used for this experiment. […] Aβ levels within the ISF were measured for an additional 5 hours. The single logarithmic plot was made from Aβ levels and extrapolated the half-life of ISF Aβ.

monomeric Aβ = assay: Immunoblot of 4 kDa Aβ band (6E10, 82E1) in TBS soluble extracts of APP/PS1 mice; assay type: in vivo, mouse; conditions: one week i.p. treatment
clinical = conditions: human, in vivo, po, 10 mg, average Cmax of ibuprofen in the CSF
Method: The evaluation of the plasma and CSF levels in 24 human subjects under an IND and a phase I study followed a 10 mg or 20 mg oral administration to healthy volunteers (age 55-79).

[5] = 3.15 mg/kg, versus PBS controls

formation of Aβ42 fibrils, TEM (Aβ42; 500 nM): inhibited
formation of Aβ42 fibrils, TEM (Aβ42; lower concentration (50 nM)): no effect was detected
content of TBS-soluble Aβx-40 (Aβx-40; 2.1 mg/kg i.p. daily): 39.5%
total level of TBS soluble Aβx-40 after 0.5 M Gdn-HCl (Aβx-40; 2.1 mg/kg): 50.7%
content of TBS-soluble Aβx-40 (Aβx-40; 3.15 mg/kg i.p. daily): 37.1%
total level of TBS soluble Aβx-40 after 0.5 M Gdn-HCl (Aβx-40; 3.15 mg/kg): 44.6%
amount of Aβx-40 extracted in 2% SDS (Aβx-40; [5]): significantly decreased
amount of Aβx-40 extracted in 2% triton (Aβx-40; [5]): significantly decreased
binding to Aβ peptides (Aβ peptides): binds to Aβ peptides
content of TBS-soluble Aβx-42 (Aβx-42; 2.1 mg/kg i.p. daily): 40.9%
total level of TBS soluble Aβx-42 after 0.5 M Gdn-HCl (Aβx-42; 2.1 mg/kg): 63.3%
content of TBS-soluble Aβx-42 (Aβx-42; 3.15 mg/kg i.p. daily): 46.2%
total level of TBS soluble Aβx-42 after 0.5 M Gdn-HCl (Aβx-42; 3.15 mg/kg): 76.1%
amount of Aβx-42 extracted in 2% SDS (Aβx-42; [5]): significantly decreased
amount of Aβx-42 extracted in 2% triton (Aβx-42; [5]): significantly decreased
luminescence signal, pre-existing oligomers [3]: failed to impact the luminescence signal
ISF Aβx-40 level (ISF Aβx-40): 283 pM
decrease of ISF Aβx-40 level (ISF Aβx-40): 30%
Compound: O=C(O)c1cc(=O)c2c(OCC(O)COc3cccc4oc(C(=O)O)cc(=O)c34)cccc2o1 [cromolyn sodium, disodium salt of 5,5′-[(2-hydroxytrimethylene)dioxy]bis [4-oxo-4H-1-benzopyran-2-carboxylate]]
concentration at which the effect on luminescence could be detected [1]: above 10 μM
luminescence signal, oligomer formation ([1]; 10 nM, 10 μM or 1 mM, 12 hours): significantly decreased the luminescence signal in a dose-dependent manner
Aβ40 and Aβ42 fibrillization, thioflavin T (Aβ40 and Aβ42): inhibited Aβ fibril formation in vitro at a nanomolar concentration
water solubility [2]: water soluble
ISF Aβx-42 and Aβ oligomers [4]: performed similarly
amyloid burden and density of amyloid deposits (amyloid deposits): remained unaffected
levels of oligomeric aggregates, 82E1/82E1 ELISA (Aβ oligomers): no changes
memory capabilities in the Morris water maze tests (APP/PS1 transgenic mice): prevented lowering memory capabilities
shortening of half-life of ISF Aβ versus control (ISF Aβ): about 50%
time after Compound E at which ISF Aβ levels started to decrease (ISF Aβ): 2 h
amounts of monomeric Aβ, 4 kDa band (monomeric Aβ): decreased

Cmax (clinical): 3.94 ± 1.29 ng/mL
Compound: CC(C)Cc1ccc(C(C)C(=O)O)cc1 (racemic) [ibuprofen, (RS)-2-(4-(2-methylpropyl)phenyl) propanoic acid]
solubility in organic solvents such as ethanol and acetone [2]: readily soluble
solubility in water [2]: < 1000 µg/mL

Reference: US20200338040A1, “METHODS FOR TREATING ALZHEIMER'S DISEASE AND RELATED DISORDERS” (The General Hospital Corporation, priority 2015, published 2020)
